The results in this text go back to ChEMBL document CHEMBL1821657, “Tritoniopsins A-D, cladiellane-based diterpenes from the South China Sea nudibranch Tritoniopsis elegans and its prey Cladiella krempfi” (J Nat Prod, 2011).

In one test the test system is HeLa. Nature of the test: Cytotoxicity against human HeLa cells assessed as cell growth inhibition after 48 hrs. The class given is functional, cell-based.
The test system of the next test is 3T3-L1. Put plainly: Cytotoxicity against mouse 3T3L1 cells assessed as cell growth inhibition after 48 hrs. Format: cell-based. The note with it: 3T3-L1, 48 h.
The subject of a further test is Caco-2. Nature of the test: Cytotoxicity against human Caco2 cells assessed as cell growth inhibition after 48 hrs. The following applies: Caco-2, 48 h. Format: functional, cell-based.
The subject of the next test is C6. Put plainly: Cytotoxicity against rat C6 cells assessed as cell growth inhibition after 48 hrs. Format: functional, cell-based.
The next test relates to H9c2. Put plainly: Cytotoxicity against rat H9c2 cells assessed as cell growth inhibition after 48 hrs. The note with it: H9c2, 48 h. The class given is cell-based.

Active and inactive are the calls of the source. The rule behind the calls is not given here.

In the case of `C=C1C[C@H]2O[C@H]([C@@H]3[C@@H]4C[C@@H](OC[C@@H]4C)[C@](C)(O)[C@@H]32)[C@](C)(OC(=O)CCC)CC[C@@H]1OO` [TRITONIOPSIN B], the “growth inhibition (GI)” value with HeLa and in the test with C6 was “inactive” in each case. Further, the half-maximal inhibitory concentration (IC50) in the test on 3T3-L1, in the test on Caco-2 and in the test on H9c2 was 40 µM in each case.
